Reference: ChEMBL document CHEMBL1201862, “PubChem BioAssay data set” (2004)
Counter-ions that a name gives are not always drawn. The source made the active and inactive calls.

Tests used:
Aminopeptidase N = biological target: T1, Aminopeptidase N (Plasmodium falciparum FcB1/Columbia, UniProt O96935); assay: P. falciparum M1AAP inhibitors, biochemical, fluorogenic H-Leu-NHMec substrate, 1536-well (AID 1445); set-up: species or system Plasmodium falciparum 3D7, 3D7
T1 sequence (O96935 whole entry): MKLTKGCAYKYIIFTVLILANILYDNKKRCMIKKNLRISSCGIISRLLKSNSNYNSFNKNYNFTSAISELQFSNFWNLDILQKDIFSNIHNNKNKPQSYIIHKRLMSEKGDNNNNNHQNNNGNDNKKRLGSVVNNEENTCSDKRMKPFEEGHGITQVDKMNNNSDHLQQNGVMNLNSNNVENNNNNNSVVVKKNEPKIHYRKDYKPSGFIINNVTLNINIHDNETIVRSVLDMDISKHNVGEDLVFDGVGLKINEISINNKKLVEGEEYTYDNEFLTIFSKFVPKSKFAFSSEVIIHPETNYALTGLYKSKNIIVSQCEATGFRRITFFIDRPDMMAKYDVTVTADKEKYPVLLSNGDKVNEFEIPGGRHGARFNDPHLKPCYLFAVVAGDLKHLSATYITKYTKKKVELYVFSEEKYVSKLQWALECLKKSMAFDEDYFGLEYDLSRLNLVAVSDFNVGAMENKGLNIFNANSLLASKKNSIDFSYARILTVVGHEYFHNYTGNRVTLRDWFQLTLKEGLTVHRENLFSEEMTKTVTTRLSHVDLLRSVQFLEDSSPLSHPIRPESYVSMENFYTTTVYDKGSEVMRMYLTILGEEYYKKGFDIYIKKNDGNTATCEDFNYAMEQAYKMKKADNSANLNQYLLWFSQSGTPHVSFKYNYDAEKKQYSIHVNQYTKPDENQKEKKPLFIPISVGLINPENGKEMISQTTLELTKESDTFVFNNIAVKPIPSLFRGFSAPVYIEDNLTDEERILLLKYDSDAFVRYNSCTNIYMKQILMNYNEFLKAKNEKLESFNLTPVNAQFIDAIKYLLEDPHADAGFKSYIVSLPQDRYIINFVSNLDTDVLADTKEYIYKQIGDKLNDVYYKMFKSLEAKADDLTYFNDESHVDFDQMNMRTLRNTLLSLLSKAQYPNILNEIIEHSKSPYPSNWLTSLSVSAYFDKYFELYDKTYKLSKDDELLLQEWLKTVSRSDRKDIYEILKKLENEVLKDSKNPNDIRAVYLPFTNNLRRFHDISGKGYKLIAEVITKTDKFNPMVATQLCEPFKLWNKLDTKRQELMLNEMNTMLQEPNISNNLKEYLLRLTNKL

Prothrombin = Prothrombin (Homo sapiens, UniProt P00734); assay: Thrombin 1536 HTS Dose Response Confirmation. [Related pubchem assays: 1046 (Thrombin 1536 HTS; hits were confirmed in this assay)]; type: functional
Estrogen receptor = biological target: T2, Estrogen receptor (Homo sapiens, UniProt P03372);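 further: potency for inhibiting coactivator peptide recruitment to the receptor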
T2 sequence (P03372 whole entry): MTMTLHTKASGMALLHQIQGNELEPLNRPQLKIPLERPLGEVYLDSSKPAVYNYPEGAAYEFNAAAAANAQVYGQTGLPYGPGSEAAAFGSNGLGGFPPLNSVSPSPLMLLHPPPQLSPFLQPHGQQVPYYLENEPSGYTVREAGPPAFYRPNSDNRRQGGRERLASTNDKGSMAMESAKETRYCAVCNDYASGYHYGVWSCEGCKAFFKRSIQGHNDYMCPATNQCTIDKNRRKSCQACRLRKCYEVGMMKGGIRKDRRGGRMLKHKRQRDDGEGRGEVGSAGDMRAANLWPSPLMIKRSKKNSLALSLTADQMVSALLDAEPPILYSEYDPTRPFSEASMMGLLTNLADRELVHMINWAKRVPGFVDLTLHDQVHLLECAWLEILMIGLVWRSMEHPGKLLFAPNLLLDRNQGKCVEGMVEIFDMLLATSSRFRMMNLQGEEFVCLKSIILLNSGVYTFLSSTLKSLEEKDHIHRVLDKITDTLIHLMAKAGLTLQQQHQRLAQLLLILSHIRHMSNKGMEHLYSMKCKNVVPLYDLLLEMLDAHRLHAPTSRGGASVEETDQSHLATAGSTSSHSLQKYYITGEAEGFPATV

[1] = tested on: Streptococcus sp. 'group A'; assay: growth inhibition of control SK(-) GAS strain, dose response, counter-screen for streptokinase expression inhibitor project, luminescence, kanamycin, BacTiterGlo, confirmation (AID 1900); type: functional, organism-based
Streptokinase A = biological target: T3, Streptokinase A (Streptococcus pyogenes serotype M1, UniProt P10520); assay: S. pyogenes streptokinase expression inhibitors, potency, dose response, plasminogen activation absorbance, OD405 (AID 1914); type: functional, Streptococcus pyogenes M1 GAS;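 further: secreted streptokinase activity via plasminogen activation per viability signal from cell pellet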
T3 sequence (P10520 whole entry): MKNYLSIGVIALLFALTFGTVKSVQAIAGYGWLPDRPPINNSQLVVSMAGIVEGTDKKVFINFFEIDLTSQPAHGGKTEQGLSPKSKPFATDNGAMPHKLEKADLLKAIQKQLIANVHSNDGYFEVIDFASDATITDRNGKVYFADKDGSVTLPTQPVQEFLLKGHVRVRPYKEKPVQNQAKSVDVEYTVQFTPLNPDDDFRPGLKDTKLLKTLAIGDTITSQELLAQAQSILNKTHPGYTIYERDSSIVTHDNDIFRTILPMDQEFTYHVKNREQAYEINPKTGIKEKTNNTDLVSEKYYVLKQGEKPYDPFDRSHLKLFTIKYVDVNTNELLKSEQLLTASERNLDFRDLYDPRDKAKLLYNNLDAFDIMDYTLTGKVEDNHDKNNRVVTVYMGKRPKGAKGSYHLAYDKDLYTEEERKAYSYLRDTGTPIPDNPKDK

Streptococcus = assay: Group A Streptococcus viability loss, dose response, counter-screen for streptokinase expression inhibitor project, luminescence, BacTiterGlo (AID 1915); type: functional, organism-based;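 further: potency for reduction of bacterial viability or growth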
[2] = THP-1 cell cytotoxicity, dose response, cytotoxicity control for non-replicating M. tuberculosis project (AID 489025); type: functional
[3] = HepG2 cell cytotoxicity, dose response, cytotoxicity control for non-replicating M. tuberculosis project (AID 489018); type: functional; settings: Mycobacterium tuberculosis
[4] = Vero E6 cell cytotoxicity, dose response, cytotoxicity control for non-replicating M. tuberculosis project, secondary assay (AID 492998); type: functional, VeroE6; settings: Vero C1008
[5] = Concentration-dependent survival of SW480 colon cancer line, luminescence detection with CellTiter-Glo, half-maximal inhibitory concentration (AID 1117338); type: functional
[6] = RKO cell viability reduction, dose response, CellTiter-Glo luminescence (AID 1117322); type: functional
[7] = cytotoxicity toward HCT116 cells – cell-based, CellTiter-Glo luminescence, IC50, dose response (AID 1117332); type: functional; settings: HCT-116
[8] = SNU-C1 cell viability reduction, dose response, CellTiter-Glo luminescence (AID 1117323); type: functional, cell-based
[9] = cytotoxicity toward Colo320 cells – cell-based, CellTiter-Glo luminescence, IC50, dose response (AID 1117334); type: functional; settings: COLO 320
[10] = cytotoxicity toward HT-29 cells – cell-based, CellTiter-Glo luminescence, IC50, dose response (AID 1117330); type: functional
[11] = CellTiter-Glo luminescent dose response of DLD-1 viability loss (AID 1117352); type: functional
[12] = HCT116 cell viability decrease, GSK3B pretreatment – CellTiter-Glo, IC50, dose response (AID 1117339); type: functional; settings: HCT-116
Cytochrome P450 2D6 = Cytochrome P450 2D6 (Homo sapiens, UniProt P10635);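 further: CYP2D6 member of a cytochrome P450 panel assay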
Cytochrome P450 1A2 = biological target: T4, Cytochrome P450 1A2 (Homo sapiens, UniProt P05177);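 further: PubChem cytochrome P450 panel assay, CYP1A2 panel member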
T4 sequence (P05177 whole entry): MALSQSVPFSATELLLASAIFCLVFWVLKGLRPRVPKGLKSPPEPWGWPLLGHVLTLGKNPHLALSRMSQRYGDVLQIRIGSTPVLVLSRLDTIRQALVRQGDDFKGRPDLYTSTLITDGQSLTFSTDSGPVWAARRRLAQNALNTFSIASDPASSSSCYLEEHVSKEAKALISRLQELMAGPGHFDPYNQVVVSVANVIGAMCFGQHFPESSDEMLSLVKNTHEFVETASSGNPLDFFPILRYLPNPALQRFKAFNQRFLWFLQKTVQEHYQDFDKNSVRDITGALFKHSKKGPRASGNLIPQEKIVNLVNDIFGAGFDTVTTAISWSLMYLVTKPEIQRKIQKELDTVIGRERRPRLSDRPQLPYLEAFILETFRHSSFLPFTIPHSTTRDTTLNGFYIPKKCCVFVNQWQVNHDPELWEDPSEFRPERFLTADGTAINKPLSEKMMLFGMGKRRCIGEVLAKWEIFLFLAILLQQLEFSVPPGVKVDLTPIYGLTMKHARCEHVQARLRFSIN

Sequence of Cytochrome P450 2D6 (P10635 whole entry): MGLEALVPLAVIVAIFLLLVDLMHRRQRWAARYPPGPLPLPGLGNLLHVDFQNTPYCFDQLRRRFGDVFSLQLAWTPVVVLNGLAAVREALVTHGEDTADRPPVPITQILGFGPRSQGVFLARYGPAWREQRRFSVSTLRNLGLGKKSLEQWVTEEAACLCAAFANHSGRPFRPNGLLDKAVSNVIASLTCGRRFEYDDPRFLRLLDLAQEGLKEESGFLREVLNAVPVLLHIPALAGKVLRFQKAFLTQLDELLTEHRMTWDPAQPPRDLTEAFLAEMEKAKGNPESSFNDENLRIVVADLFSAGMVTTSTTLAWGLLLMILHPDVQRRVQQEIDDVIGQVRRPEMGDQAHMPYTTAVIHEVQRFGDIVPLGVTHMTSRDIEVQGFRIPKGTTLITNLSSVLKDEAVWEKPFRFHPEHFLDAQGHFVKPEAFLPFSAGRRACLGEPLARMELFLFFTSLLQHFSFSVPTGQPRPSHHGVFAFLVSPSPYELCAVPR

| SMILES | IC50 [5] | IC50 [6] | IC50 [7] | IC50 [8] | IC50 [9] | IC50 [10] | IC50 [11] | IC50 [12] | also measured |
| --- | --- | --- | --- | --- | --- | --- | --- | --- | --- |
| O=c1[nH]c(SCc2ccccc2Cl)nc2n[nH]cc12 | – | – | – | – | – | – | – | – | IC50 (Aminopeptidase N): 9.3 µM (active) |
| Nc1nc(-c2cccnc2)nn1C(=O)c1ccccc1Cl | – | – | – | – | – | – | – | – | IC50 (Prothrombin): 0.0831 µM (active) |
| Cc1cccc(NC2=NC(=O)/C(=C3/C(=O)N(C)c4ccccc43)S2)c1C | – | – | – | – | – | – | – | – | IC50 (Estrogen receptor): 32.9 µM (not active) |
| C/C(=N\NC(=O)c1ccccc1O)C1C(=O)c2ccccc2C1=O | – | – | – | – | – | – | – | – | IC50 (Aminopeptidase N): 12.8 µM (active); EC50 [1]: 3.62 µM (active); EC50 (Streptokinase A): > 150 µM (not active); EC50 (Streptococcus): 41 µM (active); CC50 [2]: 10.5 µM (active); CC50 [3]: > 20 µM (active); CC50 [4]: 4.99 µM (active) |
| CN(C)[C@@H](CCOc1cccc2ccccc12)c1ccccc1 [DAPOXETINE] | > 20 µM (inactive) | 8.11 µM (inactive) | > 20 µM (inactive) | 12.8 µM (inactive) | > 20 µM (inactive) | > 20 µM (inactive) | > 20 µM (inactive) | 9.86 µM (inactive) | – |
| CC(=O)NC(=O)c1ccccc1O [SALACETAMIDE] | > 20 µM (inactive) | > 20 µM (inactive) | > 20 µM (inactive) | > 20 µM (inactive) | > 20 µM (inactive) | > 20 µM (inactive) | > 20 µM (inactive) | > 20 µM (inactive) | – |
| CN1CCN(CCCN2c3ccccc3Sc3ccc(S(=O)(=O)N(C)C)cc32)CC1 [THIOPROPERAZINE MESYLATE] | > 20 µM (inactive) | 5.99 µM (inactive) | > 20 µM (inactive) | 2.12 µM (active) | 8.17 µM (inactive) | > 20 µM (inactive) | 14.6 µM (inactive) | > 20 µM (inactive) | AC50 (Cytochrome P450 2D6): 6.31 µM (inconclusive); AC50 (Cytochrome P450 1A2): 12.6 µM (inconclusive) |
